Laboratory results published in patent US12208110B2 (priority 2020, dated 2025).
Where two headings read alike, the source gives them in different places.

Columns and labels:
Format in all cases: cell-based
[1] = test system: RSV-Fluc (Recombinant Respiratory Syncytial virus strain A2 containing the firefly luciferase reporter); test: microbe, parasite or virus in culture; settings: human respiratory syncytial virus, NHBE, 72 h, read-out: RSV-Fluc EC50 (nM, NHBE)
[2] = test system: SARS-CoV-2; test: microbe, parasite or virus in culture; settings: Severe acute respiratory syndrome coronavirus 2, 48 h
[3] = MT4 cytotoxicity analysis (CellTiter-Glo); settings: human
Method: Example 79: MT4 Cytotoxicity Analysis
3-fold serially diluted compound in DMSO, ranging from 2.5 uM to 10 mM, were added by acoustic transfer (Echo) in quadruplicate into black 384-well plates at 200 nl/well. After compound addition, 40 ul MT-4 cells at 80,000/ml were added to each well using a MicroFlo liquid dispenser (BioTek, Winooski, VT) and the cells were cultured for five days at 37° C. Following the incubation, cell viability was determined by adding 35 μL of CellTiter-Glo viability reagent and mixed thoroughly using ViaFlo 384 well workstation. The mixture was incubated for at least 10 minutes at 25° C., and the luminescence signal was quantified on an EnVision plate reader.

[4] = MT-4 cells, five days, CellTiter-Glo, read-out: MT4 CC50

| SMILES | EC50 [1] [nM] | EC50 [2] [nM] | CC50 at 5 days [3, 4] [nM] | CC50 at 5 days ([3]; MT4 CC50 (nM)) [nM] |
| --- | --- | --- | --- | --- |
| CCCCCCCCCCCCCCCCCCOC[C@H](COc1ccccc1)OP(=O)(O)OC[C@H]1O[C@@](C#N)(c2ccc3c(N)ncnn23)[C@H](O)[C@@H]1O [Example 18, ((2R,3S,4R,5R)-5-(4-aminopyrrolo[2,1-f][1,2,4]triazin-7-yl)-5-cyano-3,4-dihydroxytetrahydrofuran-2-yl)methyl ((R)-1-(octadecyloxy)-3-phenoxypropan-2-yl) hydrogen phosphate] | 69 | 1800 | 670 |  |
| CCCCCCCCCCCCCCCCO[C@H](COCc1ccccc1)COP(=O)(O)OC[C@H]1O[C@@](C#N)(c2ccc3c(N)ncnn23)[C@H](O)[C@@H]1O [Example 23, ((2R,3S,4R,5R)-5-(4-aminopyrrolo[2,1-f][1,2,4]triazin-7-yl)-5-cyano-3,4-dihydroxytetrahydrofuran-2-yl)methyl ((R)-3-(benzyloxy)-2-(hexadecyloxy)propyl) hydrogen phosphate] | 83 | 10000 | 23000 |  |
| CCCCCCCCCCCCCCCCCCOC[C@H](COc1ccc(C#N)cn1)OP(=O)(O)OC[C@H]1O[C@@](C#N)(c2ccc3c(N)ncnn23)[C@H](O)[C@@H]1O [Example 41, ((2R,3S,4R,5R)-5-(4-aminopyrrolo[2,1-f][1,2,4]triazin-7-yl)-5-cyano-3,4-dihydroxytetrahydrofuran-2-yl)methyl ((R)-1-((5-cyanopyridin-2-yl)oxy)-3-(octadecyloxy)propan-2-yl) hydrogen phosphate] | 63 | 130 |  | 1900 |
| CCCCCCCCCCCCCCC#CC[C@H](COP(=O)(O)OC[C@H]1O[C@@](C#N)(c2ccc3c(N)ncnn23)[C@H](O)[C@@H]1O)OCc1cc(F)cc(C#N)c1 [Example 74, ((2R,3S,4R,5R)-5-(4-aminopyrrolo[2,1-f][1,2,4]triazin-7-yl)-5-cyano-3,4-dihydroxytetrahydrofuran-2-yl)methyl ((R)-2-((3-cyano-5-fluorobenzyl)oxy)nonadec-4-yn-1-yl) hydrogen phosphate] | 24 | 190 |  | 300 |
| CCCCCCCCCCCCCCCCCCOC[C@H](COP(=O)(O)OC[C@H]1O[C@@](C#N)(c2ccc3c(N)ncnn23)[C@H](O)[C@@H]1O)N1C(=O)c2ccccc2C1=O [Example 15, ((2R,3S,4R,5R)-5-(4-aminopyrrolo[2,1-f][1,2,4]triazin-7-yl)-5-cyano-3,4-dihydroxytetrahydrofuran-2-yl)methyl ((R)-2-(1,3-dioxoisoindolin-2-yl)-3-(octadecyloxy)propyl) hydrogen phosphate] | 140 | 2500 |  | 35000 |
| CCCCCCCCCCCCCCCCCCOC[C@H](COP(=O)(O)OC[C@H]1O[C@@](C#N)(c2ccc3c(N)ncnn23)[C@H](O)[C@@H]1O)Nc1ccc(C#N)cn1 [Example 42, ((2R,3S,4R,5R)-5-(4-aminopyrrolo[2,1-f][1,2,4]triazin-7-yl)-5-cyano-3,4-dihydroxytetrahydrofuran-2-yl)methyl ((R)-2-((5-cyanopyridin-2-yl)amino)-3-(octadecyloxy)propyl) hydrogen phosphate] | 180 | 4600 |  | 550 |
| CCCCCCCCCCCCCCCCCCOCCOP(=O)(O)OC[C@H]1O[C@@](C#N)(c2ccc3c(N)ncnn23)[C@H](O)[C@@H]1O [Example 21, ((2R,3S,4R,5R)-5-(4-Aminopyrrolo[2,1-f][1,2,4]triazin-7-yl)-5-cyano-3,4-dihydroxytetrahydrofuran-2-yl)methyl (2-(octadecyloxy)ethyl) hydrogen phosphate] | 250 | 9100 | 2300 |  |
| CCCCCCCCCCCCCCCCCOCCOP(=O)(O)OC[C@H]1O[C@@](C#N)(c2ccc3c(N)ncnn23)[C@H](O)[C@@H]1O [Example 60, [(2R,3S,4R,5R)-5-(4-aminopyrrolo[2,1-f][1,2,4]triazin-7-yl)-5-cyano-3,4-dihydroxy-tetrahydrofuran-2-yl]methyl 2-heptadecoxyethyl hydrogen phosphate] | 240 | 2000 |  | 4800 |
| CCCCCCCCCCCCCCCCCCOC[C@H](CO[P@](O)(=S)OC[C@H]1O[C@@](C#N)(c2ccc3c(N)ncnn23)[C@H](O)[C@@H]1O)OCc1cc(F)cc(C#N)c1 [Example 68] | 120 | 360 | 670 |  |
| CCCCCCCCCCCCCCCCCCOC[C@H](COP(=O)(O)OC[C@H]1O[C@@](C#N)(c2ccc3c(N)ncnn23)[C@H](O)[C@@H]1O)Nc1ccccc1C(=O)O [Example 31, 2-(((2R)-1-(((((2R,3S,4R,5R)-5-(4-aminopyrrolo[2,1-f][1,2,4]triazin-7-yl)-5-cyano-3,4-dihydroxytetrahydrofuran-2-yl)methoxy)(hydroxy)phosphoryl)oxy)-3-(octadecyloxy)propan-2-yl)amino)benzoic acid] | 260 | 6300 |  | 38000 |
| CCCCCCCCCCCCCCCCCCOC[C@H](COP(=O)(O)OC[C@H]1O[C@@](C#N)(c2ccc3c(N)ncnn23)[C@H](O)[C@@H]1O)Nc1cccc(C#N)c1 [Example 16, ((2R,3S,4R,5R)-5-(4-aminopyrrolo[2,1-f][1,2,4]triazin-7-yl)-5-cyano-3,4-dihydroxytetrahydrofuran-2-yl)methyl ((R)-2-((3-cyanophenyl)amino)-3-(octadecyloxy)propyl) hydrogen phosphate] | 100 | 1100 |  | 1900 |
| CCCCCCCCCCCCCCCCCCOC[C@H](COP(=O)(O)OC[C@H]1O[C@@](C#N)(c2ccc3c(N)ncnn23)[C@H](O)[C@@H]1O)N1Cc2cc(Cl)c(Cl)cc2C1 [Example 9, ((2R,3S,4R,5R)-5-(4-aminopyrrolo[2,1-f][1,2,4]triazin-7-yl)-5-cyano-3,4-dihydroxytetrahydrofuran-2-yl)methyl ((R)-2-(5,6-dichloroisoindolin-2-yl)-3-(octadecyloxy)propyl) hydrogen phosphate] | 490 | 9000 |  | 20000 |
| CCCCCCCCCCCCCCSCCCOP(=O)(O)OC[C@H]1O[C@@](C#N)(c2ccc3c(N)ncnn23)[C@H](O)[C@@H]1O [Example 61, [(2R,3S,4R,5R)-5-(4-aminopyrrolo[2,1-f][1,2,4]triazin-7-yl)-5-cyano-3,4-dihydroxy-tetrahydrofuran-2-yl]methyl 3-tetradecylsulfanylpropyl hydrogen phosphate] | 200 | 6100 |  | 12000 |
| CCCCCCCCCCCCCCCCCCOC[C@H](COP(=O)(O)OC[C@H]1O[C@@](C#N)(c2ccc3c(N)ncnn23)[C@H](O)[C@@H]1O)OCc1cc(F)cc(S(C)(=O)=O)c1 [Example 32, ((2R,3S,4R,5R)-5-(4-aminopyrrolo[2,1-f][1,2,4]triazin-7-yl)-5-cyano-3,4-dihydroxytetrahydrofuran-2-yl)methyl ((R)-2-((3-fluoro-5-(methylsulfonyl)benzyl)oxy)-3-(octadecyloxy)propyl) hydrogen phosphate] | 40 | 120 |  | 340 |
| CCCCCCCCCCCCCCCCCCO[C@H](C)[C@H](COP(=O)(O)OC[C@H]1O[C@@](C#N)(c2ccc3c(N)ncnn23)[C@H](O)[C@@H]1O)OCc1ccccc1 [Example 8, ((2R,3S,4R,5R)-5-(4-aminopyrrolo[2,1-f][1,2,4]triazin-7-yl)-5-cyano-3,4-dihydroxytetrahydrofuran-2-yl)methyl ((2S,3R)-2-(benzyloxy)-3-(octadecyloxy)butyl) hydrogen phosphate] | 160 | 2900 |  | 1800 |
| CCCCCCCCCCCCCCCCCCOC[C@H](COP(=O)(O)OC[C@H]1O[C@@](C#N)(c2ccc3c(N)ncnn23)[C@H](O)[C@@H]1O)Oc1c(C#N)cc(C)cc1C#N [Example 29, ((2R,3S,4R,5R)-5-(4-aminopyrrolo[2,1-f][1,2,4]triazin-7-yl)-5-cyano-3,4-dihydroxytetrahydrofuran-2-yl)methyl ((R)-2-(2,6-dicyano-4-methylphenoxy)-3-(octadecyloxy)propyl) hydrogen phosphate] | 70 | 2700 |  | 500 |
| CCCCCCCCCCCCCCC#CC[C@H](COP(=O)(O)OC[C@H]1O[C@@](C#N)(c2ccc3c(N)ncnn23)[C@H](O)[C@@H]1O)OCc1ccccc1 [Example 73, ((2R,3S,4R,5R)-5-(4-aminopyrrolo[2,1-f][1,2,4]triazin-7-yl)-5-cyano-3,4-dihydroxytetrahydrofuran-2-yl)methyl ((R)-2-(benzyloxy)nonadec-4-yn-1-yl) hydrogen phosphate] | 58 | 430 |  | 3500 |
| CCCCCCCCCCCCCCCCCCOC[C@H](COCc1cc(F)cc(C#N)c1)OP(=O)(O)OC[C@H]1O[C@@](C#N)(c2ccc3c(N)ncnn23)[C@H](O)[C@@H]1O [Example 36, ((2R,3S,4R,5R)-5-(4-aminopyrrolo[2,1-f][1,2,4]triazin-7-yl)-5-cyano-3,4-dihydroxytetrahydrofuran-2-yl)methyl ((R)-1-((3-cyano-5-fluorobenzyl)oxy)-3-(octadecyloxy)propan-2-yl) hydrogen phosphate] | 190 | 1200 |  | 28000 |
